Molecules are shown by their SMILES.

Data on three compounds can be found in article PMC8949771, “Gold(I)-Mediated Rapid Cyclization of Propargylated Peptides via Imine Formation” (Journal of the American Chemical Society, 2022).

The nature of series [1]: Au(I)-mediated imine macrocyclisation (JohnPhosAu(MeCN)SbF6 2 equiv, Et4NBr 16 equiv) then in situ NaBH4 reduction to cyclic amine, HPLC isolation. The settings on record: the molecule shown is the open-chain precursor, DMF, 8.0 mM, 37.0 °C, 1.0 h, 2 steps.
In another series the test system is HeLa cells. Description: Live-cell uptake, confocal microscopy. The settings on record: 2.5 μM, 1 h incubation, FITC signal, repeated in duplicates. The class given is cell-based. The method, then: With both peptides in hand (5 and 6, Figure 7A), we investigated the binding efficiency using our fluorescence-based competitive assay.[38] […] Encouraged by these in vitro results, we explored the cellular uptake and apoptosis efficacy of the new cyclic peptide in living cells. To investigate the live cell delivery efficacy of the FITC-labeled peptides (9 and 10), both cyclic peptides were incubated for 1h with HeLa cells at different concentrations of 2.5, 5, 7, and 10 μM. […] After assessing the cellular uptake, we probed the controlled cell death or apoptosis in HeLa cells using only 2.5 μM peptides (3 and 5) and the known proteasome inhibitor MG-132 as a positive control. […] (Figure 7E).
To investigate the cellular delivery efficiency of the new cyclic peptide HeLa (CCL-2™) cells were seeded on ibidi poly-L-lysine (PLL) 8 well µ-slides in […] and were allowed to reach […]
~90% confluency over 24h. Cells were washed three times with warm PBS and serum-free DMEM (high glucose) followed by incubation for 1h with warm PBS/serum-free medium containing containing 2.5, 5, and 10 µM of fluorescently labeled cyclic peptides (9 and 10). Cells were then washed three times with warm PBS followed by adding 0.1 mg/ml heparin sulfate in PBS and incubating for 5min. […]

`C#CCN(CC(N)=O)C(=O)CNC(=O)[C@H](C)NC(=O)[C@H](CCCNC(=N)N)NC(=O)[C@H](Cc1ccc(O)cc1)NC(=O)[C@H](CC(C)C)NC(=O)[C@H](CCCCN)NC(=O)CNC(=O)OCC1c2ccccc2-c2ccccc21` [Fmoc-Gly-Lys-Leu-Tyr-Arg-Ala-Gly-(N-propargyl)Gly-NH2]: the ring closure, yield over several steps in series [1] (25-membered ring) was 61%.

As for `CC1=NCC(=O)N[C@@H](Cc2c[nH]c3ccccc23)C(=O)N[C@@H](Cc2ccccc2)C(=O)N[C@@H](CC(=O)O)C(=O)N[C@@H](CC(=O)O)C(=O)N[C@@H](CC(C)C)C(=O)N[C@@H](Cc2ccc(O)cc2)C(=O)N[C@@H](Cc2c[nH]c3ccccc23)C(=O)N[C@@H](Cc2ccccc2)C(=O)N[C@@H](C(C)C)C(=O)N[C@@H](C)C(=O)N[C@@H](Cc2ccc(O)cc2)C(=O)N(CC(=O)N[C@@H](C)C(=O)N[C@@H](CSC2CC(=O)N(c3ccc4c(c3)C(=O)OC43c4ccc(O)cc4Oc4cc(O)ccc43)C2=O)C(N)=O)C1` (stereo partly drawn) [Peptide 10], in the series on HeLa cells, the “cellular uptake (fluorescence in cells)” value was “significant fluorescence”.

`C#CCN(CC(N)=O)C(=O)CNC(=O)[C@H](C)NC(=O)[C@H](CO)NC(=O)[C@H](Cc1ccc(O)cc1)NC(=O)[C@H](CC(C)C)NC(=O)CNC(=O)[C@@H](N)Cc1ccccc1` [H-Phe-Gly-Leu-Tyr-Ser-Ala-Gly-(N-propargyl)Gly-NH2]: the ring closure, yield over several steps in series [1] (24-membered ring) came out at 60%.
